Assay results: US8021694B2, “Acidified chlorite disinfectant compositions with olefin stabilizers” (Ecolab USA Inc., priority 2001, dated 2011)

How the values were obtained:
Type in all cases: physicochemical
[1] = Rate of color fading at 35° C. of mixed acidified chlorite product, UV/Vis spectroscopy at 425 nm; details: for Initial Color Intensity Remaining, Time After Mixing 1 hour: 1 hour after mixing; for Initial Color Intensity Remaining, Time After Mixing 2 hour: 2 hour after mixing; for Initial Color Intensity Remaining, Time After Mixing 3 hour: 3 hour after mixing; for Initial Color Intensity Remaining, Time After Mixing 4 hour: 4 hour after mixing
Procedure: (§1) The rate of color fading at 35° C. was quantified by UV/Vis spectroscopy at 425 nm.
as §1

[2] = Rate of chlorine dioxide generation in mixed acidified chlorite product, UV/Vis spectroscopy at 360 nm; details: olefin 0.0225M in mixed product, 1.32% lactic acid, 0.32% sodium chlorite, pH 2.75; for Chlorine Dioxide, Time After Mixing 1 hour: 1 hour after mixing; for Chlorine Dioxide, Time After Mixing 2 hour: 2 hour after mixing; for Chlorine Dioxide, Time After Mixing 3 hour: 3 hour after mixing; for Chlorine Dioxide, Time After Mixing 4 hour: 4 hour after mixing; for Chlorine Dioxide, Time After Mixing 5 hour: 5 hour after mixing
Procedure: A series of two-part acidified chlorite products were prepared that when combined 1:1 produced compositions containing 1.32% lactic acid, 0.32% sodium chlorite, an olefin compound formulated at a 0.0225M, and sufficient quantities of sodium hydroxide to produce a mixed product pH of 2.75. The rate of chlorine dioxide generation was determined by UV/Vis spectroscopy at 360 nm (54.31 ppm/A.U. cm).

[3] = Rate of sodium chlorite consumption, standard iodometric titration; details: olefin compound at 1.4%
Description: The rate of sodium chlorite consumption was quantified using a standard iodometric titration method.

[4] = olefin 0.045M in acid part (0.0225M mixed), FD&C Yellow #5, pH 2.75
[5] = component at 0.4%, mixed product pH 2.75

Compound | Initial Color Intensity Remaining, Time After Mixing 1 hour [1, 4] | Initial Color Intensity Remaining, Time After Mixing 2 hour [1, 4] | Initial Color Intensity Remaining, Time After Mixing 3 hour [1, 4] | Initial Color Intensity Remaining, Time After Mixing 4 hour [1, 4] | Initial Color Intensity Remaining, Time After Mixing ½ hour [1, 4] | Chlorine Dioxide, Time After Mixing 1 hour [2] [ppm] | Chlorine Dioxide, Time After Mixing 2 hour [2] [ppm] | Chlorine Dioxide, Time After Mixing 3 hour [2] [ppm] | Chlorine Dioxide, Time After Mixing 4 hour [2] [ppm] | Chlorine Dioxide, Time After Mixing 5 hour [2] [ppm] | also measured
CCCCCCCC/C=C\CCCCCCCC(=O)NCCC[N+](C)(C)CC(=O)[O-] [Oleamidopropyl betaine] | ** (>50% of Initial Color Intensity Remaining) | ** (>50% of Initial Color Intensity Remaining) | ** (>50% of Initial Color Intensity Remaining) | ** (>50% of Initial Color Intensity Remaining) | ** (>50% of Initial Color Intensity Remaining) | – | – | – | – | – | –
Oleth-10 phosphate | ** (>50% of Initial Color Intensity Remaining) | ** (>50% of Initial Color Intensity Remaining) | ** (>50% of Initial Color Intensity Remaining) | ** (>50% of Initial Color Intensity Remaining) | ** (>50% of Initial Color Intensity Remaining) | 7 | 14 | 17 | 21 | 25 | –
Oleth-10 | ** (>50% of Initial Color Intensity Remaining) | ** (>50% of Initial Color Intensity Remaining) | ** (>50% of Initial Color Intensity Remaining) | ** (>50% of Initial Color Intensity Remaining) | ** (>50% of Initial Color Intensity Remaining) | 10 | 16 | 21 | 25 | 28 | –
CCCCCCCC/C=C\CCCCCCCC(=O)N(C)CCS(=O)(=O)[O-].[Na+] [Sodium N-methyl oleoyl taurate, sodium N-methyl oleoyl taurate] | ** (>50% of Initial Color Intensity Remaining) | ** (>50% of Initial Color Intensity Remaining) | ** (>50% of Initial Color Intensity Remaining) | ** (>50% of Initial Color Intensity Remaining) | ** (>50% of Initial Color Intensity Remaining) | 4 | 5 | 5 | 6 | 7 | Initial Color Intensity Remaining, Time After Mixing 1 hour [1, 5]: ** (>50% of Initial Color Intensity Remaining); Initial Color Intensity Remaining, Time After Mixing 2 hour [1, 5]: ** (>50% of Initial Color Intensity Remaining); Initial Color Intensity Remaining, Time After Mixing 3 hour [1, 5]: ** (>50% of Initial Color Intensity Remaining); Extension of colorant intensity ([1]; component at 0.4%, in words): extended the colorant intensity longer; Initial Color Intensity Remaining, Time After Mixing ½ hour [1, 5]: ** (>50% of Initial Color Intensity Remaining); Initial NaClO2 Level remaining, Time After Mixing 1 hour ([3]; 1 hour after mixing, pH 2.75 when mixed 1:1): ** (>50% Initial NaClO2 Level); Initial NaClO2 Level remaining, Time After Mixing 2 hour ([3]; 2 hour after mixing, pH 2.75 when mixed 1:1): ** (>50% Initial NaClO2 Level); Initial NaClO2 Level remaining, Time After Mixing 3 hour ([3]; 3 hour after mixing, pH 2.75 when mixed 1:1): ** (>50% Initial NaClO2 Level); Initial NaClO2 Level remaining, Time After Mixing 4 hour ([3]; 4 hour after mixing, pH 2.75 when mixed 1:1): ** (>50% Initial NaClO2 Level); Initial NaClO2 Level remaining, Time After Mixing 5 hour ([3]; 5 hour after mixing, pH 2.75 when mixed 1:1): ** (>50% Initial NaClO2 Level); Rate of sodium chlorite consumption ([3]; equal weight-base comparison, in words): stronger effect than alpha olefin sulfonate
CCCCCCCC/C=C\CCCCCCCC[N+](C)(CCO)CCO.[Cl-] [oleylmethylbis(hydroxyethyl)ammonium chloride] | ** (>50% of Initial Color Intensity Remaining) | ** (>50% of Initial Color Intensity Remaining) | ** (>50% of Initial Color Intensity Remaining) | ** (>50% of Initial Color Intensity Remaining) | ** (>50% of Initial Color Intensity Remaining) | – | – | – | – | – | –
CCCCCCCC/C=C\CCCCCCCC(=O)NCCOC(=O)C(CC(=O)[O-])S(=O)(=O)[O-].[Na+].[Na+] (centres unmarked) [Disodium oleamido MEA sulfosuccinate] | ** (>50% of Initial Color Intensity Remaining) | ** (>50% of Initial Color Intensity Remaining) | ** (>50% of Initial Color Intensity Remaining) | ** (>50% of Initial Color Intensity Remaining) | ** (>50% of Initial Color Intensity Remaining) | – | – | – | – | – | –
